Measurements as given in publication PMC11356571, “The Comparative Metabolism of a Novel Hepatocellular Carcinoma Therapeutic Agent, 2,3-Diamino-N-(4-(benzo[d]thiazol-2-yl)phenyl)propanamide, in Human and Animal Hepatocytes” (Metabolites, 2024).

Tests used:
[1] = Metabolic stability in monkey hepatocytes; assay type: in vitro ADME; conditions: cryopreserved hepatocytes
Experimental: Cryopreserved hepatocytes were carefully thawed in a 37 °C water bath for approximately 1 min, and transferred to a tube containing pre-warmed thawing medium. The supernatants were removed and the pellets were resuspended in KHB at a final cell density of 1 × 10^6 cells/mL, based on hemocytometer counting using trypan blue exclusion. A ETN101 solution was prepared by dissolving ETN101 in water at 4 mM and diluted by KHB at the concentration of 4 μM of ETN101. Sixty microliters each of hepatocyte suspensions and 4 μM of ETN101 were added in a 96-well plate and incubated for 0, 5, 15, 30, and 45 min at 37 °C in a CO2 incubator. All incubations were conducted in triplicates. Reactions were terminated by the addition of 120 μL of ice-cold acetonitrile and followed by vortex mixing. After centrifugation at 13,000 rpm for 8 min at 4 °C, 5 μL of internal standard (IS, camptothecin in acetonitrile at 780 ng/mL) was added to 60 μL of supernatant. A 2 μL aliquot was injected into the LC-MS/MS system. The reliability of the analysis was confirmed by incorporating three different levels of quality control samples at the beginning and end of each analytical batch. The disappearance rate (k) of ETN101 was calculated by determined peak area ratio of ETN101 to IS over incubation period. Subsequently, half-life (t1/2), intrinsic clearance (Clint), and intrinsic hepatic clearance (Clint,hep) of ETN101 in human and animal hepatocytes were calculated using the following equation [34]: t1/2(min)=ln2/−k(elimination slope) ClintμL/min/10^6 cells=ln2/t1/2×μL incubation/hepatocytes (10^6 cells) Clint,hepmL/min/kg=Clint/1000×A×10^6 cells/g liver×B g liver/kg body weight […]
For the metabolic stability assay, an LC-MS/MS system was employed, consisting of an Agilent 1260 series HPLC system (Agilent Technologies Inc., Santa Clara, CA, USA) coupled to an API 4000 mass spectrometer (AB SCIEX, Concord, Vaughan, ON, Canada) equipped with a turbo electrospray interface. […] ETN101 and IS were detected using multiple reaction monitoring (MRM) mode under positive electrospray ionization (ESI). […]

[2] = test system: NAT2 in human liver cytosol; assay: Human liver cytosol incubation with NAT2 inhibitor 1-aminobenzotriazole; assay type: in vitro ADME; conditions: 30 min at 37 °C, M1 1 μM
Experimental: For the chemical inhibition assay, human liver cytosol was prepared in 0.05 M potassium phosphate buffer at a concentration of 1 mg/mL prior to use. A 1 μL of M1 (final concentration: 1 μM) solution was spiked in 223 μL of human liver cytosol preparations. One microliter each of caffeic acid and 1-aminobenzotriazole were added and incubated as NAT1 and NAT2 inhibitors, respectively. The final concentrations of the NAT inhibitors were 0, 100, and 1000 μM in each incubate. After 5 min of pre-warming of the incubates at 37 °C, the metabolic reaction was initiated by adding 25 μL of acetyl-CoA regenerating system to the incubates. The samples were incubated in triplicate for 0 min or 30 min at 37 °C. The reaction was stopped by adding 250 μL of ice-cold acetonitrile containing the IS (camptothecin, 500 ng/mL) and vortex-mixing. Following centrifugation at 13,000 rpm for 5 min at 4 °C, a 2 μL aliquot of the supernatant was injected into the LC-MS/MS system. The percentage of remaining M1 and the formation of M2 were evaluated to determine the involvement of the NAT isozyme in N-acetylation of M1.
For enzyme characterization, an Agilent 6460 triple quadrupole mass spectrometer coupled with a 1260 HPLC system (Agilent Technologies, Santa Clara, CA, USA) and a Kinetex Halo® C18 column (2.7 μm, 2.1 × 50 mm, Advanced Material Technology, Wilmington, DE, USA) were used for chromatographic separation. The mobile phases comprised 0.1% (v/v) formic acid in water (mobile phase A) and 0.1% formic acid (v/v) in acetonitrile (mobile phase B). The mobile phase flowed at a rate of 0.3 mL/min, and the gradient elution program proceeded as follows: starting with 10% B for 0.5 min, a linear increase to 90% B for 0.2 min, maintaining 90% B for 1.5 min, and then returning to initial conditions for 0.2 min. Subsequently, the column was reconditioned using 10% B for 2.6 min. The column and auto-sampler were maintained at 40 °C and 4 °C, respectively. ETN101, M1, and M2 were detected via MRM using ESI in the positive mode. […]

SMILES	half-life at 2 µM ([1]; 45 min incubation at 37 °C) [h]	hepatocyte CLint at 2 µM ([1]; 45 min incubation at 37 °C) [µL/min/1e6 cells]	CLint scaled at 2 µM ([1]; scaled from Clint) [mL/min/kg]	Percentage remaining of M1 ([2]; 1-aminobenzotriazole 0 μM) [%]	Percentage remaining of M1 ([2]; 1-aminobenzotriazole 100 μM) [%]	Percentage remaining of M1 ([2]; 1-aminobenzotriazole 1000 μM) [%]
NCC(N)C(=O)Nc1ccc(-c2nc3ccccc3s2)cc1 (stereo not drawn) [ETN101, 2,3-diamino-N-(4-(benzo[d]thiazol-2-yl)phenyl)propanamide]	1.22	19	45.7			
Nc1ccc(-c2nc3ccccc3s2)cc1 [M1, 2-(4-aminophenyl)benzothiazole]				86.7	89.4	90.9
